Reference: US20260041620A1, “NOVEL AMINO ACID BASED SALTS, COMPOSITIONS AND METHODS FOR TREATING SKIN AND IMPROVING SKIN REJUVENATION AND LONGEVITY” (Sytheon Ltd, priority 2023, published 2026)

Tests used:
FAAH = target: T1, FAAH (Homo sapiens, UniProt O00519); experiment: FAAH fluorescence-based inhibitory assay; type: biochemical
T1 sequence (O00519 1-579): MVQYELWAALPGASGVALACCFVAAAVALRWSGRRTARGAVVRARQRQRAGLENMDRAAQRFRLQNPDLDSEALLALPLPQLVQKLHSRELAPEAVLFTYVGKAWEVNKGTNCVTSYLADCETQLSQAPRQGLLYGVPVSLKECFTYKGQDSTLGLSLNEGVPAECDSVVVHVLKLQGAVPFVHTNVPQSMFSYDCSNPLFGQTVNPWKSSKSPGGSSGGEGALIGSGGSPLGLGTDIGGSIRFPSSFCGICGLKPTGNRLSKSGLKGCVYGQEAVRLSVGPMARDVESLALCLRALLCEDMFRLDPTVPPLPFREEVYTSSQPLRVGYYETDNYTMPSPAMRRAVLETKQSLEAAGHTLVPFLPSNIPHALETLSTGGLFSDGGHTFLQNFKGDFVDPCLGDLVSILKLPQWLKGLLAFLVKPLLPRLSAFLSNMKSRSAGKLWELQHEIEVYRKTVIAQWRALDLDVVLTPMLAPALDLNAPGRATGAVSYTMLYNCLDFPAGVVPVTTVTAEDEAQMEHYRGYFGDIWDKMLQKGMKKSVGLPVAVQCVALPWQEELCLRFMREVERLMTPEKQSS

FABP-3 = target: T2, FABP-3 (Homo sapiens, UniProt P05413); experiment: FABP-3 ELISA inhibitory assay; type: biochemical
T2 construct: purchased Neovateinbio PT-452
T2 sequence (P05413 whole entry): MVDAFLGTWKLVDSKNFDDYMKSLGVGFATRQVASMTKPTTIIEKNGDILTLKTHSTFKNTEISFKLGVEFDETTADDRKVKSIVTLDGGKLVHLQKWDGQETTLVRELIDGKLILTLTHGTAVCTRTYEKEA

FABP-5 = target: T3, FABP-5 (Homo sapiens, UniProt Q01469); experiment: FABP-5 ELISA inhibitory assay; type: biochemical
T3 construct: purchased Raybiotech 268-10276-1
T3 sequence (Q01469 whole entry): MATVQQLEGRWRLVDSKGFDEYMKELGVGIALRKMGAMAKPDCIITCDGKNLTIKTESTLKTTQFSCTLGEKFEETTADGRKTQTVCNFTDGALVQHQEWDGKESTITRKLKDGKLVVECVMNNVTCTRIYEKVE

MAGL = target: T4, MAGL (Homo sapiens, UniProt Q99685); experiment: MAGL inhibitory assay; type: biochemical
T4 construct: purchased Cayman 10007812
T4 sequence (Q99685 1-303): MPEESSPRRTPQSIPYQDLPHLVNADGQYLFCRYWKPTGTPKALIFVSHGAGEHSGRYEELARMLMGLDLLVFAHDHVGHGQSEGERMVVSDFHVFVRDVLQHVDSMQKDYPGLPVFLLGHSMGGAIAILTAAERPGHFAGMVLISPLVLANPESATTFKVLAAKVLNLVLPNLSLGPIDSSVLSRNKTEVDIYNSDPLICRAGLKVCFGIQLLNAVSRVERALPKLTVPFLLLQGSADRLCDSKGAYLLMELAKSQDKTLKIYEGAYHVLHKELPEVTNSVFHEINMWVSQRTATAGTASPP
Method: Each study was performed in duplicate and the results averaged.
The final concentration in each well was 10 μl of sample, 5.6 μM MAGL (Cayman Catalog #10007812) and 23.6 μM 2-Arachidonoyl Glycerol (Cayman catalog #62160).

HDAC 4 = HDAC 4 (Homo sapiens, UniProt P56524); experiment: HDAC 4 fluorogenic assay kit
Sequence of HDAC 4 (P56524 whole entry): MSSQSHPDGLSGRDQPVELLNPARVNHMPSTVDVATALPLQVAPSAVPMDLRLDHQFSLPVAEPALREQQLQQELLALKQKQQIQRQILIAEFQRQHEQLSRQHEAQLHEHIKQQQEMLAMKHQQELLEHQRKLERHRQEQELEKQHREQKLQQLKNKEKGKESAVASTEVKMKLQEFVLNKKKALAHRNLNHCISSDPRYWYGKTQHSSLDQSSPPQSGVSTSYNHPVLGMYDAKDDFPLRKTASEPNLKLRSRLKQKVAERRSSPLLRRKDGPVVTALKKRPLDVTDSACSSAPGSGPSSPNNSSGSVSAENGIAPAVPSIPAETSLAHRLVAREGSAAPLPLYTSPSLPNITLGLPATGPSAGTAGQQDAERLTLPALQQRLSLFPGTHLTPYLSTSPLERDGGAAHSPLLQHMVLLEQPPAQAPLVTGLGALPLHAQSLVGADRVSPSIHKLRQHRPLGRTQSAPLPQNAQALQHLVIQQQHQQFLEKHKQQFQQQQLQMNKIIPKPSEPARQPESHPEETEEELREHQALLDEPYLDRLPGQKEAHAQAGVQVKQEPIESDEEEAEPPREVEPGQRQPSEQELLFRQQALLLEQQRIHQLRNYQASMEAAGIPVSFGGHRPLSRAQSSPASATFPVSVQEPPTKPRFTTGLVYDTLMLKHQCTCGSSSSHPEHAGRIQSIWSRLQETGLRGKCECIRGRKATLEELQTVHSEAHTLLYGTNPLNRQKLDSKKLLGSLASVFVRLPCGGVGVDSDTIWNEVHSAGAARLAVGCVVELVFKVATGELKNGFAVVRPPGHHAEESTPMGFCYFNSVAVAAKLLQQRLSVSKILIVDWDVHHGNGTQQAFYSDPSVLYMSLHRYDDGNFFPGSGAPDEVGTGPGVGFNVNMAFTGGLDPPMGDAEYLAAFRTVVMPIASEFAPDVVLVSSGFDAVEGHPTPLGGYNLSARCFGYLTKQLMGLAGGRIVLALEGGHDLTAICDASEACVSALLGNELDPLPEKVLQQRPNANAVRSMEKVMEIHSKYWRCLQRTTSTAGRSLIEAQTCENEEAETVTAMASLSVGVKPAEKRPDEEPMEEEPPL

calcium dilysinate [Ca dilysinate]
FAAH IC50 (FAAH): 445.1 µg/mL
FABP-3 IC50 (FABP-3): 208.6 µg/mL
FABP-5 IC50 (FABP-5): 871.4 µg/mL
MAGL IC50 (MAGL): 856.0 µg/mL
HDAC 4 activity, % of water-treated controls (HDAC 4; 25 ug/ml): 109%
HDAC 4 activity, % of water-treated controls (HDAC 4; 50 ug/ml): 101%
HDAC 4 activity, % of water-treated controls (HDAC 4; 100 ug/ml): 107%
